The values below come from patent US9795687B2, “Modularly assembled small molecules for the treatment of myotonic dystrophy type 1” (The Scripps Research Institute, priority 2013, dated 2017).

One data set concerns pronase. The data set can be described thus: Proteolytic stability against pronase digestion (HPLC). In kind it is in vitro ADME, Streptomyces griseus K-1. Further details: key to Pronase Degradation (pH 7.8) / Pronase Degradation (pH 9): +: Pronase stable; ++: Intermediate Pronase stability; +++: Pronase unstable. As to conditions: 18 h, 400 μM compound. How it is done:
Proteolytic stability of second and third generation compounds was assessed using pronase as previously described.^3 Pronase is a group of≧10 proteases isolated from Streptomyces griseus K-1. As such, proteolytic degradation was measured at two pH's, 7.8 and 9.0. Briefly, promise (1 unit) was added to the compound of interest (400 μM in 40 μL) in 1X Digestion Buffer (50 mM Tris-HCl, pH 7.8 or 9.0, and 10 mM CaCl2), and the reaction was incubated at 37° C. for 18 h. Reactions were quenched by addition of 4 μL of 25% acetic acid, and the products of the pronase digestion were analyzed by HPLC. A linear gradient of 0-100% methanol in H2O with 0.1% (v/v) TFA and a flow rate of 1 mL/min were employed.

For another data set, the system named is r(AU)12. Nature of the data set: SPR binding kinetics to r(AU)12. As for the experimental part:
The binding of 2H-K4NMe to various RNAs including r(CUG)12, r(CAG)12, r(AU)12 and r(GC)δ was studied by surface plasmon resonance (SPR) spectrometry. […] In summary, 2H-K4NMe is selective for r(CUG)12 by ˜30-100-fold over the other RNAs studied (Table 2). In general, it has a faster association rate (kon) and a slower dissociation rate (koff) when binding to r(CUG)12 compared to the other RNAs.
On rates, off rates and Kobs values were measured using a ForteBio OctetRed spectrophotometer and Streptavidin SA dip-and-read biosensors (ForteBio). Sensors were pre-equilibrated in 1X Kinetics Buffer (ForteBio) prior to beginning measurements. 5′-Biotinylated r(CUG)12 was folded by heating in 1X Kinetics Buffer at 60° C. for 5 min followed by slow cooling to room temperature on the bench top. Measurements were completed by incubating sensors sequentially in 200 μL of: 1X Kinetics Buffer, 540 nM 5′-biotinylated RNA, 1X Kinetics Buffer, compound of interest or MBNL1 (varying concentrations; seven 1:2 dilutions in 1X Kinetics Buffer), and finally 1X Kinetics Buffer. Data were fit using ForteBio's Data Analysis 7.0 software. MBNL1 and II (monomer) data were fit using a 1:1 model. This model fits one analyte in solution binding to one binding site on the surface. 2H-K4NMe and 2H-4 data were fit using a 2:1 heterogeneous ligand model. This model fits the binding of one analyte in solution to two different binding sites on the surface. Kinetic parameters are calculated for both interactions.
(In general: SPR reads the build-up and loss of mass on a sensor chip optically.)

[1] abbreviates: r(AU)12, two component binding isotherm.

In the case of `C[C@@H](C(=O)N(C)[C@@H](C)C(=O)N(C)[C@@H](C)C(=O)N(C)[C@@H](C)C(=O)N[C@@H](CCCCNC(=O)CCCOc1cccc(-c2nc3cc(-c4nc5cc(N6CCN(C)CC6)ccc5[nH]4)ccc3[nH]2)c1)C(N)=O)N(C)C(=O)CCCOc1cccc(-c2nc3ccc(-c4nc5cc(N6CCN(C)CC6)ccc5[nH]4)cc3[nH]2)c1` [Compound 2H-K4NMe], the “Pronase Degradation (pH 7.8)” value in the data set on pronase (pH 7.8, 37° C.) was “++”. Besides, the “Pronase Degradation (pH 9)” value in the data set on pronase (pH 9.0, 37° C.) is reported as “++”. Further, in the data set with r(AU)12 (over r(AU)12), the “Selectivity for r(CUG)12” value stood at 30. Moreover, in the data set on r(AU)12 (r(AU)12), the “kon (1)” value was found to be 41300 M⁻¹ s⁻¹ and the “kon (2)” value came to 19800 M⁻¹ s⁻¹. The Kd on r(AU)12 (r(AU)12, read-out: Kobs (1)) turned out to be 400 nM. In the data set on r(AU)12 (setting [1]), the “koff (1)” value amounted to 0.0165 s⁻¹ and the “koff (2)” value is 0.359 s⁻¹.
